Data published in the C3SDB collision cross section collection.
Where “and” joins values, the source holds several entries; their conditions need not be identical. Identical values can stand only once.

Conditions: instrument: DT, stepped-field

| collision cross section (N2) ([M+H]+) | collision cross section (N2) ([M+Na]+) | SMILES | also measured |
| --- | --- | --- | --- |
| 228.3 Å² | – | CC(C)C[C@H](NC(=O)[C@H](CC(=O)O)NC(=O)[C@H](C)N)C(=O)N[C@@H](C)C(=O)N[C@@H](CCCCN)C(=O)O [ADLAK] | – |
| 285.7 Å² | – | CC(C)C[C@H](NC(=O)[C@H](CC(=O)O)NC(=O)[C@@H](NC(=O)[C@H](CC(C)C)NC(=O)[C@@H](N)C(C)C)C(C)C)C(=O)N[C@@H](CCC(=O)O)C(=O)N[C@@H](CCCNC(=N)N)C(=O)O [VLVDLER] | – |
| 195.8 Å² | – | NCCCC[C@H](NC(=O)[C@H](CC(=O)O)NC(=O)CNC(=O)[C@@H](N)CC(=O)O)C(=O)O [DGDK] | – |
| 241.4 Å² | – | CCC(C)[C@H](NC(=O)[C@@H](N)CCC(N)=O)C(=O)N[C@@H](CO)C(=O)N[C@H](C(=O)N[C@@H](CCCNC(=N)N)C(=O)O)C(C)C (some centres undefined) [QISVR] | – |
| – | – | CCCCCCCCCCCCCCCCCCCC(=O)O[C@H](COC(=O)CCCCCCCCCCCCCCCC)COP(=O)(O)OCCN [PE(37:0)] | collision cross section (N2) ([M+K]+): 297.8 Å² |
| – | – | CCCCC/C=C\C/C=C\C/C=C\CCCCCCC(=O)O[C@H](COC(=O)CCCCCCCCCCCC)COP(=O)([O-])OCC[N+](C)(C)C [PC(33:3)] | collision cross section (N2) ([M+K]+): 290.1 Å² |
| – | 295 Å² | CCCCC/C=C\C/C=C\C/C=C\C/C=C\CCCC(=O)O[C@H](COC(=O)CCCCCCCCCCCCCCCC)COP(=O)(O)OC[C@H](N)C(=O)O [PS(37:4)] | – |
| – | – | OCC1OC(OC2(CO)OC(CO)C(O)C2O)C(O)C(O)C1O (centres undefined) [(Hex)2] | collision cross section (N2) ([M+Na-H2O]+): 172.1 Å² |
| 232.5 Å² | – | CC(C)C[C@H](NC(=O)[C@H](CO)NC(=O)[C@H](C)NC(=O)[C@@H](N)C(C)C)C(=O)N[C@@H](CCCNC(=N)N)C(=O)O [VASLR] | – |
| – | – | CCCCCCCCCCCCCCCCCC[N+](CCCCCCCCCCCCCCCCCC)(CCCCCCCCCCCCCCCCCC)CCCCCCCCCCCCCCCCCC [TAA18] | collision cross section (N2) ([M]+): 379 Å² |
| – | 300.6 Å² | CC=CCC=CCC=CCC=CCC=CCC=CCC(=O)OC[C@H](COP(=O)(O)OCC[N+](C)(C)C)OC(=O)CC=CCC=CCC=CCC=CCC=CCC=CC [PC(40:12)] | – |
| – | 309.5 Å² | CCCCC=CCC=CCC=CCC=CCC=CCC=CCC(=O)OC[C@H](COP(=O)(O)OC[C@H](N)C(=O)O)OC(=O)CC=CCC=CCC=CCC=CCC=CCC=CCCCC [PS(46:12)] | – |
| – | 290.2 Å² | CCCCC/C=C\C/C=C\C/C=C\C/C=C\CCCC(=O)OC[C@H](COP(=O)(O)OC[C@H](N)C(=O)O)OC(=O)CCCC/C=C\C/C=C\C/C=C\CCCCC [PS(38:7)] | – |
| – | 286.2 Å² | CCCCC/C=C\C/C=C\CCCCCCCCCC(=O)O[C@H](COC(=O)CCCCCCC/C=C\CCCCCCC)COP(=O)(O)OCCN [PE(37:3)] | collision cross section (N2) ([M+K]+): 286.5 Å² |
| – | – | OCC1OC(OC2C(CO)OC(OC3C(CO)OC(O)C(O)C3O)C(O)C2O)C(O)C(O)C1O (centres undefined) [(Hex)3] | collision cross section (N2) ([M+Na-H2O]+): 204.9 Å² |
| 238.6 Å² | – | CC(C)C[C@H](N)C(=O)N[C@@H](Cc1c[nH]c2ccccc12)C(=O)N[C@@H](CO)C(=O)N[C@@H](C)C(=O)N[C@@H](CCCCN)C(=O)O [LWSAK] | – |
| – | 292.2 Å² | CCCCCCCCC/C=C\CCCCCCCC(=O)O[C@H](COC(=O)CCCCCCCCCCCCCCCCC)COP(=O)(O)OCCN [PE(37:1)] | collision cross section (N2) ([M+K]+): 295 Å² |
| 231 Å² | – | NCCCC[C@H](NC(=O)CNC(=O)[C@H](Cc1c[nH]c2ccccc12)NC(=O)[C@@H](N)Cc1ccccc1)C(=O)O [FWGK] | – |
| – | 299.7 Å² | CC/C=C\C/C=C\C/C=C\C/C=C\C/C=C\C/C=C\CCC(=O)OC[C@H](COP(=O)(O)OCCN)OC(=O)CC/C=C\C/C=C\C/C=C\C/C=C\C/C=C\C/C=C\CC [PE(44:12)] | – |
| 204.7 Å² | – | CC(C)[C@H](NC(=O)[C@@H](N)CC(=O)O)C(=O)N[C@@H](CS)C(=O)N[C@@H](CCCCN)C(=O)O [DVCK] | – |
| – | 303.3 Å² | CC/C=C\C/C=C\C/C=C\C/C=C\C/C=C\C/C=C\CCC(=O)O[C@H](COC(=O)CCCCCCCCCCCCCCCCCC)COP(=O)(O)OC[C@H](N)C(=O)O [PS(41:6)] | – |

| collision cross section (N2) ([M+H]+) | collision cross section (N2) ([M+Na]+) | SMILES | also measured |
| --- | --- | --- | --- |
| 258.5 Å² | – | CCC(C)[C@H](N)C(=O)N[C@@H](Cc1c[nH]cn1)C(=O)N[C@@H](CCC(=O)O)C(=O)N[C@@H](Cc1ccc(O)cc1)C(=O)N[C@@H](CCCCN)C(=O)O (some centres undefined) [IHEYK] | – |
| – | 178.1 Å² | OC[C@H]1O[C@@H](O[C@H]2[C@H](O)[C@@H](O)[C@@H](O)O[C@@H]2CO)[C@H](O)[C@@H](O)[C@H]1O [Lactose] | collision cross section (N2) ([M+Li]+): 186.3 Å² |
| 295.5 Å² | – | CC(C)C[C@H](NC(=O)[C@H](Cc1ccc(O)cc1)NC(=O)[C@H](C)NC(=O)[C@H](C)NC(=O)[C@@H](N)Cc1ccccc1)C(=O)N[C@@H](CCC(=O)O)C(=O)N[C@@H](CCCNC(=N)N)C(=O)O [FAAYLER] | – |
| 348.4 Å² | – | CCC(C)[C@H](N)C(=O)NCC(=O)N[C@@H](CO)C(=O)N[C@@H](CCC(=O)O)C(=O)N[C@H](C(=O)N[C@@H](Cc1ccc(O)cc1)C(=O)N[C@@H](Cc1c[nH]cn1)C(=O)N[C@@H](CC(N)=O)C(=O)N[C@@H](CC(C)C)C(=O)N[C@@H](CCCCN)C(=O)O)C(C)C (some centres undefined) [IGSEVYHNLK] | – |
| – | 384.6 Å² | OCC1OC(OC2C(CO)OC(OC3C(CO)OC(OC4C(CO)OC(OC5C(CO)OC(OC6C(CO)OC(OC7C(CO)OC(OC8C(CO)OC(OC9C(CO)OC(OC%10C(CO)OC(OC%11C(CO)OC(O)C(O)C%11O)C(O)C%10O)C(O)C9O)C(O)C8O)C(O)C7O)C(O)C6O)C(O)C5O)C(O)C4O)C(O)C3O)C(O)C2O)C(O)C(O)C1O (centres undefined) [(Hex)11] | collision cross section (N2) ([M+H-H2O]+): 379.1 Å²; collision cross section (N2) ([M+K]+): 364.8 Å² and 367.1 Å²; collision cross section (N2) ([M+Li]+): 369.7 Å²; collision cross section (N2) ([M+Rb]+): 363.1 Å² and 369.7 Å² |
| 237.3 Å² | – | N=C(N)NCCC[C@H](NC(=O)[C@H](CC(=O)O)NC(=O)[C@H](CO)NC(=O)[C@H](CO)NC(=O)[C@@H](N)Cc1ccccc1)C(=O)O [FSSDR] | – |
| – | 279.7 Å² | CCCCC/C=C\C/C=C\CCCCCCCC(=O)O[C@H](COCCCCCCCCCCCCCCCC)COP(=O)(O)OCCN [PE(o34:2)] | – |
| – | 313.5 Å² | CCCCCCCCCCCCC=CC[C@@H](O)[C@H](COP(=O)([O-])OCC[N+](C)(C)C)NC(=O)CC=CCCCCCCCCCCCCCCCCCCCCCC [SM(44:2)] | – |
| 215.4 Å² | – | CCC(C)C(NC(=O)C(N)Cc1c[nH]c2ccccc12)C(=O)NC(CCCN=C(N)N)C(=O)O (centres undefined) [WIR] | – |
| 249 Å² | – | C[C@H](N)C(=O)N[C@@H](C)C(=O)NCC(=O)N[C@@H](Cc1c[nH]cn1)C(=O)N[C@@H](CC(=O)O)C(=O)NCC(=O)N[C@@H](CCCCN)C(=O)O [AAGHDGK] | – |
| – | 302 Å² | CC/C=C\C/C=C\C/C=C\C/C=C\C/C=C\C/C=C\CCC(=O)O[C@H](COC(=O)CCCCCC/C=C\C/C=C\C/C=C\CCCCC)COP(=O)(O)OC[C@H](N)C(=O)O [PS(42:9)] | – |
| – | – | CCCCCC=CCC=CCC=CCC=CCC=CCC=CCC(=O)OC[C@H](COP(=O)(O)OC[C@H](N)C(=O)O)OC(=O)CC=CCC=CCC=CCC=CCC=CCC=CCCCCC [PS(48:12)] | collision cross section (N2) ([M+K]+): 313.6 Å² |
| 349.1 Å² | – | CCC(C)[C@H](NC(=O)[C@H](CO)NC(=O)[C@@H](NC(=O)[C@@H](N)CO)C(C)CC)C(=O)N[C@H](C(=O)NCC(=O)N[C@@H](CO)C(=O)N[C@@H](Cc1ccc(O)cc1)C(=O)N[C@H](C(=O)NCC(=O)N[C@@H](CC(N)=O)C(=O)N[C@@H](CCCNC(=N)N)C(=O)O)C(C)C)C(C)C (some centres undefined) [SISIVGSYVGNR] | – |
| – | 286.4 Å² | CCCC/C=C\C/C=C\CCCCCCCC(=O)OC[C@H](COP(=O)(O)OCCN)OC(=O)CCCCC/C=C\C/C=C\C/C=C\C/C=C\CCCCC [PE(39:6)] | – |
| – | 259.5 Å² | OCC1OC(OC2C(CO)OC(OC3C(CO)OC(OC4C(CO)OC(OC5C(CO)OC(O)C(O)C5O)C(O)C4O)C(O)C3O)C(O)C2O)C(O)C(O)C1O (centres undefined) [(Hex)5] | collision cross section (N2) ([M+H-H2O]+): 282.3 Å²; collision cross section (N2) ([M+Na-H2O]+): 263.1 Å² |
| 326.8 Å² | – | CCC(C)[C@H](NC(=O)[C@H](CC(C)C)NC(=O)[C@H](CC(C)C)NC(=O)[C@H](CCC(=O)O)NC(=O)[C@H](CC(N)=O)NC(=O)[C@H](C)N)C(=O)N[C@@H](CC(N)=O)C(=O)N[C@H](C(=O)N[C@@H](CCCCN)C(=O)O)C(C)C (some centres undefined) [ANELLINVK] | – |
| – | 243.9 Å² | NCCCC[C@H](NC(=O)[C@H](CC(N)=O)NC(=O)[C@H](CCC(N)=O)NC(=O)[C@@H](N)Cc1ccccc1)C(=O)O [FQNK] | – |
| – | 307 Å² | CCCCC/C=C\C/C=C\C/C=C\C/C=C\CCCCCC(=O)O[C@H](COC(=O)CCCCCCCCC/C=C\CCCCCCCC)COP(=O)(O)OC[C@H](N)C(=O)O [PS(42:5)] | – |
| – | 271.1 Å² | CC(=O)N[C@H]1[C@H](O[C@H]2[C@@H](O)[C@@H](CO)O[C@@H](O[C@@H]([C@H](O)[C@@H](O)C=O)[C@H](O)CO)[C@@H]2O)O[C@H](CO)[C@@H](O[C@@H]2O[C@@H](C)[C@@H](O)[C@@H](O)[C@@H]2O)[C@@H]1O[C@@H]1O[C@H](CO)[C@H](O)[C@H](O)[C@H]1O [Lacto-N-Fucopentaose II] | collision cross section (N2) ([M+K]+): 267.2 Å²; collision cross section (N2) ([M+Rb]+): 278.4 Å² |
| 258.4 Å² | – | CC(C)[C@H](NC(=O)[C@@H](N)CO)C(=O)N[C@@H](Cc1ccc(O)cc1)C(=O)N[C@@H](CC(=O)O)C(=O)N[C@@H](CO)C(=O)N[C@@H](CCCNC(=N)N)C(=O)O [SVYDSR] | – |
| – | 292.5 Å² | CC/C=C\C/C=C\C/C=C\C/C=C\C/C=C\C/C=C\CCC(=O)O[C@H](COC(=O)CCCCCCC/C=C\CCCC)COP(=O)([O-])OCC[N+](C)(C)C [PC(36:7)] | – |

| SMILES | collision cross section (N2) ([M+H]+) | collision cross section (N2) ([M+Na]+) | also measured |
| --- | --- | --- | --- |
| CC(C)C[C@H](NC(=O)[C@H](CC(=O)O)NC(=O)[C@@H](N)Cc1ccc(O)cc1)C(=O)N[C@@H](CC(=O)O)C(=O)N[C@@H](Cc1ccccc1)C(=O)N[C@@H](CCCCN)C(=O)O [YDLDFK] | 272.4 Å² | – | – |
